Source: patent US11440909B2, “10H-phenothiazine ferroptosis inhibitor as well as the preparative method and the use thereof” (CHENGDU HENGHAO INVESTMENT CO. LIMITED, priority 2018, dated 2022)

Test system: fibrosarcoma cell line HT1080
Assay: Ferroptosis screening model (MTT method), Erastin-induced ferroptosis
Format: cell-based, human
Details: HT1080, ferroptosis inducer Erastin, 72 h, average of three tests, read-out: EC50
Description: The screening model for ferroptosis mainly used MTT method. First, the fibrosarcoma cell line HT1080 was cultured in a dish, and the cells in the logarithmic growth phase were inoculated into a 96-well plate in a certain number (3000-10000 cells/well), 100 μL per well, and then the plate was put in an 5% CO2 incubator at 37° C., to allow the cells to adhere. After 24 h, 100 μL compound solution at a certain concentration prepared in the designated medium and ferroptosis inducer Erastin (with a final concentration of […]) were added, setting 3 replicate wells for each compound to ensure the accuracy of the results, and a negative control group, a positive control group (Fer-15 μM), a blank control group and a solvent control group were included. After addition of drugs, the plate was placed in an incubator and cultivated for 72 h. On the day of MTT experiment, MTT test solution (5 mg/mL MTT solution dissolved in physiological saline, and stored in the dark at 4° C.) was pre-prepared and 20 μL MTT solution was added to each well, then the plate was put in an incubator and continued to incubate for 2-4 h. After that, 50 μL of 20% SDS solution (dissolved in MiliiQ water, added with 1% concentrated hydrochloric acid) was added to each well and kept in an incubator overnight. On the next day, the absorbance at 570 nm was measured with a microplate reader, to calculate the inhibition rate of drugs on ferroptosis. Generally, the absorbance value of the control group should be in the range of 0.8-1.2 as a normal value.
GraphPadPrism5 software was used to fit the change curve of inhibition rate and calculate the EC50.

| SMILES | EC50 [nM] |
| --- | --- |
| CC(c1ccc2c(c1)Nc1ccccc1S2)c1c2ccccc2cc2ccccc12 (centres unmarked) [Compound A71, 2-(1-(anthrathen-9-yl)ethyl)-10H-phenothiazine] | 17 |
| CC(c1ccccc1)c1ccc2c(c1)Nc1ccccc1S2 (centres unmarked) [Compound B1, 2-(1-phenylethyl)-10H-phenothiazine] | 10 |
| C=C(c1ccc(N2CCOCC2)cc1)c1ccc2c(c1)Nc1ccccc1S2 [Compound B14, 4-(4-(1-(10H-phenothiazin-2-yl)ethenyl)phenyl)morpholine] | 39 |
| C=C(c1ccc(N2CCOCC2)cc1)c1ccc2c(c1)Nc1ccccc1S2 [Compound B15, 4-(4-(1-(10H-phenothiazin-2-yl)ethenyl)phenyl)morpholine] | 680 |

Same assay, conditions: Homo sapiens, HT-1080, 72 h, HT1080, ferroptosis inducer Erastin, 72 h, average of three tests, read-out: EC50

| SMILES | EC50 [nM] |
| --- | --- |
| CCOc1ccc2cc(C(C)c3ccc4c(c3)Nc3ccccc3S4)ccc2c1 (centres unmarked) [Compound A70, 2-(1-(6-ethoxylnaphthalen-2-yl)ethyl)-10H-phenothiazine] | 18 |
| CC(c1ccc2c(c1)CCO2)c1ccc2c(c1)Nc1ccccc1S2 (centres unmarked) [Compound A72, 2-(1-(2,3-dihydrobenzofuran-5-yl)ethyl)-10H-phenothiazine] | 14 |
| CC(c1cncc(C#N)c1)c1ccc2c(c1)Nc1ccccc1S2 (centres unmarked) [Compound A73, 5-(1-(10H-phenothiazin-2-yl)ethyl)nicotinonitrile] | 5 |
| Cc1cc(C(C)c2ccc3c(c2)Nc2ccccc2S3)ccn1 (centres unmarked) [Compound A74, 2-(1-(2-methylpyridin-4-yl)ethyl)-10H-phenothiazine] | 3 |
| CCOc1ccc(C(C)c2ccc3c(c2)Nc2ccccc2S3)cn1 (centres unmarked) [Compound A75, 2-(1-(6-ethoxylpyridin-3-yl)ethyl)-10H-phenothiazine] | 23 |
| CC(c1ccc2c(c1)Nc1ccccc1S2)C1CCCCC1 (centres unmarked) [Compound A76, 2-(1-cyclohexylethyl)-10H-phenothiazine] | 5 |
| C=C(c1ccc(C(=O)OC)cc1)c1ccc2c(c1)Nc1ccccc1S2 [Compound B2, methyl 4-(1-(10H-phenothiazin-2-yl)ethenyl)benzoic acid] | 32 |
| C=C(c1ccc(C(F)(F)F)cc1)c1ccc2c(c1)Nc1ccccc1S2 [Compound B3, 2-(1-(4-(trifluoromethyl)phenyl)ethenyl)-10H-phenothiazine] | 11 |
| C=C(c1ccc(CC)cc1)c1ccc2c(c1)Nc1ccccc1S2 [Compound B4, 2-(1-(4-ethylphenyl)ethenyl)-10H-phenothiazine] | 23 |
| C=C(c1ccc(OC(F)(F)F)cc1)c1ccc2c(c1)Nc1ccccc1S2 [Compound B5, 2-(1-(4-trifluoromethoxylphenyl)ethenyl)-10H-phenothiazine] | 80 |
| C=C(c1ccc(C)cc1)c1ccc2c(c1)Nc1ccccc1S2 [Compound B6, 2-(1-(p-methylphenyl)ethenyl)-10H-phenothiazine] | 45 |
| C=C(c1ccc(CCCC)cc1)c1ccc2c(c1)Nc1ccccc1S2 [Compound B7, 2-(1-(4-butylphenyl)ethenyl)-10H-phenothiazine] | 29 |
| C=C(c1ccc(C(C)C)cc1)c1ccc2c(c1)Nc1ccccc1S2 [Compound B8, 2-(1-(4-isopropylphenyl)ethenyl)-10H-phenothiazine] | 40 |
| C=C(c1ccc(NC(C)=O)cc1)c1ccc2c(c1)Nc1ccccc1S2 [Compound B9, N-(4-(1-(10H-phenothiazin-2-yl)ethenyl)phenyl)acetylamine] | 3 |
| C=C(c1ccc(NC(N)=O)cc1)c1ccc2c(c1)Nc1ccccc1S2 [Compound B10, N-(4-(1-(10H-phenothiazin-2-yl)ethenyl)phenyl)urea] | 10 |
| C=C(c1ccc(C2CCCCC2)cc1)c1ccc2c(c1)Nc1ccccc1S2 [Compound B11, 2-(1-(4-cyclohexylphenyl)ethenyl)-10H-phenothiazine] | 39 |
| C=C(c1ccc(CC(C)C)cc1)c1ccc2c(c1)Nc1ccccc1S2 [Compound B12, 2-(1-(4-isobutylphenyl)ethenyl)-10H-phenothiazine] | 40 |
| C=C(c1ccc(C=O)cc1)c1ccc2c(c1)Nc1ccccc1S2 [Compound B13, 4-(1-(10H-phenothiazin-2-yl)ethenyl)benzaldehyde] | 30 |
| C=C(c1ccc2c(c1)Nc1ccccc1S2)c1ccccc1N [Compound B16, 2-(1-(10H-phenothiazin-2-yl)ethenyl)phenylamine] | 29 |
| C=C(c1cccc(N)c1)c1ccc2c(c1)Nc1ccccc1S2 [Compound B17, 3-(1-(10H-phenothiazin-2-yl)ethenyl)phenylamine] | 17 |
| C=C(c1cccc(O)c1)c1ccc2c(c1)Nc1ccccc1S2 [Compound B18, 3-(1-(10H-phenothiazin-2-yl)ethenyl)phenol] | 40 |
| C=C(c1cccc([N+](=O)[O-])c1)c1ccc2c(c1)Nc1ccccc1S2 [Compound B19, 2-(1-(3-nitrophenyl)ethenyl)-10H-phenothiazine] | 13 |

| SMILES | EC50 [nM] |
| --- | --- |
| C=C(c1cccc(S(N)(=O)=O)c1)c1ccc2c(c1)Nc1ccccc1S2 [Compound B20, 3-(1-(10H-phenothiazin-2-yl)ethenyl)benzenesulfonamide] | 10 |
| C=C(c1cccc(OC)c1)c1ccc2c(c1)Nc1ccccc1S2 [Compound B21, 2-(1-(3-methoxylphenyl)ethenyl)-10H-phenothiazine] | 11 |
| C=C(c1cccc(OC(F)(F)F)c1)c1ccc2c(c1)Nc1ccccc1S2 [Compound B22, 2-(1-(3-trifluoromethoxylphenyl)ethenyl)-10H-phenothiazine] | 30 |
| C=C(c1cccc(OC(C)C)c1)c1ccc2c(c1)Nc1ccccc1S2 [Compound B23, 2-(1-(3-isopropoxylphenyl)ethenyl)-10H-phenothiazine] | 48 |
| C=C(c1cccc(C)c1)c1ccc2c(c1)Nc1ccccc1S2 [Compound B24, 2-(1-(m-methylphenyl)ethenyl)-10H-phenothiazine] | 31 |
| C=C(c1cccc(C(C)(C)C)c1)c1ccc2c(c1)Nc1ccccc1S2 [Compound B25, 2-(1-(3-t-butylphenyl)ethenyl)-10H-phenothiazine] | 16 |
| C=C(c1cccc(C(N)=O)c1)c1ccc2c(c1)Nc1ccccc1S2 [Compound B26, 3-(1-(10H-phenothiazin-2-yl)ethenyl)benzamide] | 16 |
| C=C(c1cccc(C(C)C)c1)c1ccc2c(c1)Nc1ccccc1S2 [Compound B27, 2-(1-(3-isopropylphenyl)ethenyl)-10H-phenothiazine] | 38 |
| C=C(c1cccc(C(=O)OCC)c1)c1ccc2c(c1)Nc1ccccc1S2 [Compound B28, ethyl3-(1-(10H-phenothiazin-2-yl)ethenyl)benzoic acid] | 27 |
| C=C(c1cccc(-c2ccccc2)c1)c1ccc2c(c1)Nc1ccccc1S2 [Compound B29, 2-(1-([1,1′-diphenyl]-3-yl)ethenyl)-10H-phenothiazine] | 41 |
| C=C(c1cccc(C(F)(F)F)c1)c1ccc2c(c1)Nc1ccccc1S2 [Compound B30, 2-(1-(3-(trifluoromethyl)phenyl)ethenyl)-10H-phenothiazine] | 45 |
| C=C(c1cccc(C(=O)OC)c1)c1ccc2c(c1)Nc1ccccc1S2 [Compound B31, methyl 3-(1-(10H-phenothiazin-2-yl)ethenyl)benzoic acid] | 51 |
| C=C(c1cccc(C#N)c1)c1ccc2c(c1)Nc1ccccc1S2 [Compound B32, 3-(1-(10H-phenothiazin-2-yl)ethenyl)benzonitrile] | 89 |
| C=C(c1cccc(C(=O)c2ccccc2)c1)c1ccc2c(c1)Nc1ccccc1S2 [Compound B33, (3-(1-(10H-phenothiazin-2-yl)ethenyl)phenyl)benzophenone] | 111 |
| C=C(c1cccc(C(F)F)c1)c1ccc2c(c1)Nc1ccccc1S2 [Compound B34, 2-(1-(3-(difluoromethyl)phenyl)ethenyl)-10H-phenothiazine] | 11 |
| C=C(c1cccc(OCc2ccccc2)c1)c1ccc2c(c1)Nc1ccccc1S2 [Compound B35, 2-(1-(3-(benzyloxyl)phenyl)ethenyl)-10H-phenothiazine] | 53 |
| C=C(c1cccc(N2CCOCC2)c1)c1ccc2c(c1)Nc1ccccc1S2 [Compound B36, 4-(3-(1-(10H-phenothiazin-2-yl)ethenyl)phenyl)morpholine] | 30 |
| C=C(c1ccc(C#N)c(C)c1)c1ccc2c(c1)Nc1ccccc1S2 [Compound B37, 4-(1-(10H-phenothiazin-2-yl)ethenyl)-2-methylbenzonitrile] | 14 |
| C=C(c1ccc([N+](=O)[O-])c(C)c1)c1ccc2c(c1)Nc1ccccc1S2 [Compound B38, 2-(1-(3-methyl-4-nitrophenyl)ethenyl)-10H-phenothiazine] | 35 |
| C=C(c1ccc2c(c1)Nc1ccccc1S2)c1ccc(OC)c(OC)c1 [Compound B39, 2-(1-(3,4-dimethoxylphenyl)ethenyl)-10H-phenothiazine] | 23 |
| C=C(c1ccc(C#N)c(F)c1)c1ccc2c(c1)Nc1ccccc1S2 [Compound B40, 4-(1-(10H-phenothiazin-2-yl)ethenyl)-2-fluorobenzonitrile] | 41 |
